Assay results reported in patent US8507464B2, “Phosphoramidate alkylator prodrugs” (Threshold Pharmaceuticals, Inc., priority 2005, dated 2013).
Read-outs that look alike come from different tables or passages of the source.

Legend:
[1] = test system: mouse (MLM) liver microsomal proteins; type: in vitro ADME; details: Table 2B
[2] = test system: H460 cell line; experiment: Anti-proliferation assay, hypoxia vs normoxia (Table 1A); details: for IC50: Homo sapiens; for HCR P: ratio of IC50 in normoxia and hypoxia
[3] = test system: NCI-H460 cells; experiment: Antiproliferation assay (Alamar Blue), anoxia vs air; details: Homo sapiens, NCI-H460, 2 h
[4] = test system: HT29; experiment: Anti-proliferation assay, hypoxia vs normoxia (Table 1B); details: for IC50: Homo sapiens
[5] = MTD (Table 2B); details: in vivo
[6] = test system: MES-SA/Dx5 cells; experiment: Antiproliferation assay (Alamar Blue), anoxia vs air; details: Homo sapiens, MES-SA/Dx5, 2 h
[7] = test system: DX-5; experiment: Anti-proliferation assay, hypoxia vs normoxia (Table 1B)
[8] = test system: HT29 cells; experiment: Antiproliferation assay (Alamar Blue), anoxia vs air; details: Homo sapiens, HT-29, 2 h
[9] = Plasma stability (Table 2B); details: 30 min
[10] = test system: NCI H460 xenograft; experiment: NCI H460 non small cell lung carcinoma xenograft mouse model (Example 48); type: in vivo; details: Group 6: Taxol (q2d × 3)/week × 2 weeks; day 29; vs vehicle
Protocol: Female CB17/SCID mice (purchased from Charles River, Cambridge, Mass.), 7-8 weeks of age, were allowed to acclimatize for at least three days, and handled under pathogen-free conditions. Human […] cell line NCI H460 was obtained from the American Type Culture Collection. The cell lines were cultured and harvested according to the procedure described in Example 47 and inoculated at 1×10^6 cells/animal in the peritoneal subcutaneous space. When the tumors grew to an average volume of 100 mm^3 (day 8), […], as tabulated in the table below: Compound 25 (2.5 mg/ml in 10% PEG; administration route—i.p.) and Taxol (1 mg/ml in 5% EtOH, 5% Cremophor and 90% saline; administration—i.v. 2 h after administration of Compound 25). The body weight and tumor volumes were measured as described in Example 47 above.
Results are presented in Table X2 based on tumor volume measurement on day 29 when vehicle treated mice had reached a volume of 946 mm^3. Groups of 5 mice receiving saline or no treatment were added in order to indicate any vehicle effects but are not used for comparisons in this analysis.

[11] = test system: NCI H460 xenograft; type: in vivo, mouse; details: day 27, vs vehicle
Excerpt: Comparisons were made on day 27 because that was the last day of measurements for the vehicle group and those animals were sacrificed.

[12] = type: physicochemical; details: glassy carbon, Ag/AgCl reference
[13] = test system: NCI-H460 cells; experiment: Antiproliferation assay - oxygen dependence; type: cell-based, human; details: Homo sapiens
Excerpt: . […] The calculated IC50 values (μM) are tabulated in Table Y1 (H460 cells) or Table Y2 (HT29 cells) below.

[14] = test system: HT29 xenograft; experiment: HT-29 human colon carcinoma xenograft mouse model (Example 50); type: in vivo
Protocol: Female CB17/SCID mice (purchased from Charles River, Cambridge, Mass.), 7-8 weeks of age, were allowed to acclimatize for at least three days, and handled under pathogen-free conditions. Human colon carcinoma cell line HT29 was obtained from the American Type Culture Collection. The cell lines were cultured and harvested as described in Example 47 above, and inoculated at 3×10^6 cells/animal in the peritoneal subcutaneous space. […]; in saline) on the days the combination therapy was scheduled; 5FU alone (in saline), or CDDP alone.
In control groups, tumors were implanted in two locations as part of a separate study of effect of location on control group tumor growth. […] The body weight and tumor volume were measured as described in Example 47. Tumor growth inhibition measured on day 25 when vehicle tumors had reached the maximal size and animals in that group were sacrificed is tabulated below.

[15] = logP (partitioning between octanol and water); type: physicochemical; details: logP
Excerpt: As used herein “LogP” means a measure of lipophilicity of a substance determined based on the partitioning of the substance betwen octanol and water.

[16] = test system: NCI-H460 cells; experiment: Clonogenic assay - oxygen dependence; details: Homo sapiens
[17] = test system: H460 lung carcinoma spheroids; experiment: Spheroid model, clonogenic survival; details: Homo sapiens, NCI-H460, 2 h, read-out: IC90 H460 Spheroid 10% O2
[18] = in vivo; details: CD-1, mouse, ip, 50 mg/kg
[19] = test system: H460 cells exposed as monolayers; experiment: Clonogenic survival of monolayer cells (Example 35); details: Homo sapiens, NCI-H460, 2 h
[20] = test system: MES-SA cells; experiment: Antiproliferation assay (Alamar Blue), anoxia vs air; details: Homo sapiens, 2 h
[21] = NCI-H460, read-out: Hypoxia P (proliferation IC50)
[22] = NCI-H460, read-out: Normoxia P (proliferation IC50)
[23] = read-out: IC50 H460 Air, air, 2 h exposure
[24] = read-out: IC50 H460 Anoxia, anoxia, 2 h exposure
[25] = read-out: IC50 MES-SA/Dx5 Anoxia

Cn1c(COP(=O)(N(CCCl)CCCl)N(CCCl)CCCl)cnc1[N+](=O)[O-] [Compound 6]
Metabolic stability (MLM) (% at 30 min) [1]: 0% | IC50 [2, 21]: 700 nM | IC50 [2, 22]: > 100000 nM | HCR P [2]: >140 | IC50 [3, 23]: > 100000 nM | IC50 [3, 24]: 700 nM | HT29 HCR P [4]: >2 | IC50 ([4]; HT-29, read-out: HT29 P H (proliferation IC50, hypoxia)): 55000 nM | IC50 ([4]; HT-29, read-out: HT29 P N (proliferation IC50, normoxic)): > 100000 nM | MTD [5]: 250 mg/kg | IC50 ([6]; read-out: IC50 MES-SA/Dx5 Air): > 100000 nM | IC50 [6, 25]: 5000 nM | DX-5 HCR [7]: >20 | IC50 ([7]; read-out: DX-5 P H (proliferation IC50, hypoxia)): 5000 nM | IC50 ([7]; read-out: DX-5 P N (proliferation IC50, normoxic)): > 100000 nM | IC50 ([8]; read-out: IC50 HT29 Air): > 100000 nM | IC50 ([8]; read-out: IC50 HT29 Anoxia): 22000 nM | Plasma stability (% at 30 min) [9]: 60%

CC(=O)O[C@H]1C(=O)[C@@]2(C)[C@H]([C@H](OC(=O)c3ccccc3)[C@]3(O)C[C@H](OC(=O)[C@H](O)[C@@H](NC(=O)c4ccccc4)c4ccccc4)C(C)=C1C3(C)C)[C@]1(OC(C)=O)CO[C@@H]1C[C@@H]2O [Taxol, paclitaxel, reference compound]
% Inhibition vs Group 2 [10]: 46% | % Inhibition vs Group 1 ([11]; Group 2: Taxol 10 mg/kg (q2d × 3)/week × 2 week): 36.7%

O=[N+]([O-])c1ccc(COP(=O)(NCCBr)NCCBr)o1 [Compound 24]
Reduction Potentials, 100 mV/sec ([12]; scan rate 100 mV/sec): −568 mV | Reduction Potentials, 10,000 mV/sec ([12]; scan rate 10,000 mV/sec): −636 mV | IC50 ([13]; NCI-H460, read-out: IC50 in H460 cells, 0.6% O2): 850 nM | IC50 ([13]; NCI-H460, read-out: IC50 in H460 cells, Air): > 1000 nM | IC50 ([13]; NCI-H460, read-out: IC50 in H460 cells, N2): 7 nM | IC50 [2, 21]: 10 nM | IC50 ([2]; NCI-H460, read-out: IC50 in cells under hypoxia): 50 nM | IC50 [2, 22]: 4000 nM | fold more toxic in hypoxic cells than in normoxic cells ([2]; anti-proliferation cytotoxicity assay): 400 fold | HCR P [2]: 400 | tumor growth inhibition, monotherapy [14]: more than 40% | body weight ([14]; during treatment, recovered after end of treatment): minor decreases in weights | IC50 [3, 23]: 4000 nM | IC50 [3, 24]: 10 nM | logP [15]: < 0 | IC90 ([16]; NCI-H460, read-out: IC90 H460 0.6% O2): 250 nM | IC90 ([16]; NCI-H460, read-out: IC90 H460 Air): 14000 nM | IC90 ([16]; NCI-H460, read-out: IC90 H460 N2): 70 nM | IC90 [17]: 3000 nM | IC50 ([6]; read-out: IC50 MES-SA/Dx5 Air): 800 nM | IC50 [6, 25]: 100 nM | AUC [18]: 64000 ng·h/mL | Cmax [18]: 7600 ng/mL | Tmax [18]: 5 min | half-life [18]: 4.1 min | IC90 ([19]; read-out: IC90 H460 Monolayer 0.6% O2): 250 nM | IC90 ([19]; read-out: IC90 H460 Monolayer Air): 4000 nM | IC90 ([19]; read-out: IC90 H460 Monolayer N2): 70 nM | IC50 ([20]; read-out: IC50 MES-SA Air): 2000 nM | IC50 ([20]; read-out: IC50 MES-SA Anoxia): 100 nM | % Inhibition vs Group 1 ([11]; Group 3: Compound 24 3 mg/kg (q1d × 5 d)/week × 3 week): 39.9%
